Values after ≈ are worked out from the molar mass of the structure shown. Read-outs that look alike come from different tables or passages of the source.

The subject of one data set is B. cenacepacia (FQC2524). In words: MIC/MBC antibiotic sensitivity (CLSI). Type of data set: cell-based, B. cenocepacia. The conditions noted are these: Burkholderia cenocepacia. The method, then: (§1) The new compounds of the invention were synthesized following the general method of preparation (Tetrahedron, 2001, 57, 1671-1675), from the reaction between an intermediary compound of the acyl thiourea and HgCl2 in presence of trimethylamine. The products were adequately characterized regarding its chemistry. The antibacterial activity of the new compounds was assayed against two Gram-positive reference strains: Staphylococcus aureus (ATCC6538) and Bacillus cereus (ATCC10876), a fermenting Gram-negative strain: Escherichia coli (ATCC25922), and 26 non-fermenting Gram-negative isolates, including 3 reference strains: Pseudomonas aeruginosa (PAO1), Bordetella bronchiseptica (9.73H+), and Inquilinus limosus (DSM16000), and 23 isolates recovered from patients suffering from cystic fibrosis, including one Achromobacter xylosoxidans isolate, and 22 isolates belonging to the Burkholderia cepacia complex. The later were selected because they presented resistance to a high number of antimicrobial compounds, among a panel of 125 clinical isolates previously analyzed for its resistance against 17 antimicrobial compounds (1,2). The antibiotic sensitivity studies were performed by applying two quantitative methods which allow to determine the minimum inhibitory concentration (MIC) and the minimum bactericidal concentration (MBC).
(§2) The compounds obtained in Examples 1 and 2 were assayed against 23 isolates recovered from the sputum of patients suffering from cystic fibrosis being treated at the Sor Maria Ludovica Children Hospital (La Plata, Buenos Aires, Argentina). Nineteen of these isolates were selected for being highly resistant to most of the antimicrobial agents of clinical use from a panel of 125 isolates previously characterized in Martina et al. (1). Reference strains were also included: Gram (+) bacteria: B. cereus and S. aureus, fermenting Gram (−) bacteria: E. coli, and non-fermenting Gram (−) bacteria: Inquilinus limosus (DSM16000), B. bronchiseptica, and Pseudomonas aeruginosa (PAO1). The antibiotic sensitivity studies were performed applying two quantitative methods which allow to determine the minimum inhibitory concentration (MIC) and the minimum bactericidal concentration (MBC) according to the criteria established by the Clinical and Laboratory Standards Institute (CLSI) (4). For comparative purposes, three antibiotics commonly used in the treatment of pulmonary infections in cystic fibrosis patients were included in the study: tobramycin, ceftazidime and meropenem.

Data set [1] concerns human monocyte cell line THP-I. In words: Cytotoxicity assay, Trypan blue vital staining. Type of data set: cell-based. The conditions noted are these: ratio IC50 / MIC, strain not stated. The method, then: (§3) For example, the MIC values for E. coli of the guanidine derivatives disclosed in patent application WO 2004073709 A1 are higher than 1 μg/ml. The guanidine derivatives disclosed by Hensler and colleagues (Hensler, M. E.; Bernstein, G.; Nizet, V.; Nefzi, A., Bioorganic & Medicinal Chemistry Letters 2006, 16, 5073-5079) have MIC values higher than 2.5 μg/ml against E. coli. […] In vitro cytotoxicity assays were performed using the human monocyte cell line THP-I and vital staining with Trypan Blue (3). The IC50 value was defined as the higher drug concentration at which 50% of cells are viable compared with the control. […] The Selectivity Index (SI), defined as the ratio between the IC50 and the MIC for each compound, was calculated. Compound H-BDF has an SI>10, which makes it a good antimicrobial candidate according to the criteria set up by Orme (5).
(§4) For assaying the cytotoxicity of the compounds obtained in Examples 1 and 2, cell viability by vital coloration exclusion with Trypan blue (3). The studies were performed using the monocyte cell line THP-I. The IC50 value was defined as the highest drug concentration at which 50% of the cells are viable as compared with the control.

Data set [2] can be described thus: Cytotoxicity assay, Trypan blue vital staining. The conditions noted are these: human, THP-I monocyte cells; THP-I cells, Trypan Blue; highest drug concentration at which 50% of cells are viable compared with control. The format is cell-based, human. Here is the method: as §3, §4
For data set [3], the system named is Burkholderia cenocepacia (CBC 023). As to the kind of experiment: MIC/MBC antibiotic sensitivity (CLSI). Type of data set: cell-based. A digest of the protocol:
(§5)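 Two quantitative methods following CLSI criteria gave minimum inhibitory concentration (MIC) and minimum bactericidal concentration (MBC). Burkholderia isolates came from sputum of cystic fibrosis patients and were chosen for high resistance to clinically used antimicrobials; S. aureus is a Gram-positive reference strain.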

The subject of data set [4] is Burkholderia multivorans (CBC 022). As to the kind of experiment: MIC/MBC antibiotic sensitivity (CLSI). Type of data set: cell-based. In a few lines:
as §5

In data set [5] the test system is Inquilinus limosus (DSM16000). In words: MIC/MBC antibiotic sensitivity (CLSI). Type of data set: cell-based. In a few lines: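 Antibacterial activity is measured as MIC and MBC under CLSI criteria. Tobramycin, ceftazidime and meropenem serve as comparator antibiotics.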
Data set [6] deals with Achromobacter xylosaxidans (HNA001). As to the kind of experiment: MIC/MBC antibiotic sensitivity (CLSI). Type of data set: cell-based, Achromobacter xylosoxidans. The method, then: as §1, §2
The test system of data set [7] is Burkholderia seminalis (CBC 040). The conditions noted are these: reference (1); cited from earlier work.
The mark [8] stands for this setting: Burkholderia cenocepacia (CBC 023).
Where [9] appears, read: Burkholderia cenocepacia (CBC 023), read-out: MIC.
The mark [10] stands for this setting: Burkholderia multivorans (CBC 022).
Where [11] appears, read: Burkholderia multivorans (CBC 022), read-out: MIC.
[12] abbreviates: Achromobacter xylosaxidans (HNA001).
Where [13] appears, read: Achromobacter xylosaxidans (HNA001), read-out: MIC.
The mark [14] stands for this setting: Tobramucin, CLSI criteria, read-out: MIC (R/I/S category).

Broadly, the MBC is the lowest tested concentration that kills the bacteria rather than only halting them. Higher therefore signals weaker bactericidal potency. The IC50 is the point on the concentration scale where inhibition reaches its midpoint. Broadly, the melting point is the temperature, or range, at which the solid turns liquid. `O=C(NC(=Nc1c(F)cc(F)cc1Br)Nc1c(F)cc(F)cc1Br)C12CC3CC(CC(C3)C1)C2` [H-BDF, N—(N,N′-bis(2-bromo-4,6-difluorophenyl)carbamimidoyl)adamantane-1-carboxamide] showed a melting point of 174 °C. Further, the MBC in the data set with B. cenacepacia (FQC2524) worked out at 3.9 µg/mL (≈ 6.46 µM). Moreover, the MIC in the data set with B. cenacepacia (FQC2524) (read-out: MIC) worked out at 0.97 µg/mL (≈ 1.61 µM). Besides, the “Selectivity Index (SI)” value in data set [1] was over 10. In data set [2], half-maximal inhibition (IC50) was put at 15.2 µg/mL (≈ 25.3 µM). Further, the MBC in [3] (setting [8]) is 3.9 µg/mL (≈ 6.46 µM). The MIC in data set [3] (setting [9]) came out at 1.95 µg/mL (≈ 3.23 µM). This molecule registered an MBC in data set [4] (setting [10]) of 7.8 µg/mL (≈ 12.9 µM). For the same molecule, in [4] (setting [11]), the MIC is 3.9 µg/mL (≈ 6.46 µM). The MBC in [5] was determined as 7.81 µg/mL (≈ 12.9 µM). Also, the MIC in data set [5] (read-out: MIC) was 3.9 µg/mL (≈ 6.46 µM). In addition, in data set [6] (setting [12]), the MBC is under 0.48 µg/mL. Moreover, the MIC in data set [6] (setting [13]) is under 0.48 µg/mL.
In turn, `O=C(NC(=Nc1c(Br)cc(F)cc1Br)Nc1c(F)cc(F)cc1Br)C12CC3CC(CC(C3)C1)C2` [H-DBF, N—(N-(2-bromo-4,6-difluorophenyl)-N′-(2,6-dibromo-4-fluorophenyl)carbamimidoyl) adamantane-1-carboxamide] gave a melting point of 144 °C. The molecule also registered an MBC against B. cenacepacia (FQC2524) of 31.2 µg/mL (≈ 47.1 µM). In addition, the MIC with B. cenacepacia (FQC2524) (read-out: MIC) turned out to be 15.6 µg/mL (≈ 23.5 µM). The same molecule displayed an IC50 in data set [2] of over 132 µg/mL. In [3] (setting [8]), this molecule showed an MBC of 132 µg/mL (≈ 199 µM). Moreover, the MIC in [3] (setting [9]) was 66.4 µg/mL (≈ 100 µM). Also, the MBC in data set [4] (setting [10]) was over 133 µg/mL. The MIC in data set [4] (setting [11]) stood at 133 µg/mL (≈ 200 µM). Also, in data set [5] (read-out: MIC), the MIC is 61.2 µg/mL (≈ 92.2 µM). The same molecule registered an MBC in data set [6] (setting [12]) of 31.2 µg/mL (≈ 47.1 µM). The MIC in [6] (setting [13]) was determined as 7.8 µg/mL (≈ 11.7 µM).
Turning to `C[C@@H](O)[C@H]1C(=O)N2C(C(=O)O)=C(S[C@@H]3CN[C@H](C(=O)N(C)C)C3)[C@H](C)[C@H]12` [Meropenem, meropenem], the MIC in the data set with B. cenacepacia (FQC2524) (Meropenem, CLSI criteria, read-out: MIC (R/I/S category)) is under 4 µg/mL; in data set [3] (Burkholderia cenocepacia, Meropenem, CLSI criteria, B. cenocepacia (CBC 023), read-out: MIC (R/I/S category)) it was over 16 µg/mL; in [4] (Burkholderia multivorans, Meropenem, CLSI criteria, B. multivorans (CBC 022), read-out: MIC (R/I/S category)) it was under 4 µg/mL; in data set [5] (read-out: MIC) it was under 0.48 µg/mL; in data set [6] (Achromobacter, Meropenem, CLSI criteria, A. xylosaxidans (HNA001), read-out: MIC (R/I/S category)), under 4 µg/mL. Moreover, the “resistance of the strain to commercial antibiotics” value in data set [7] is “resistant”. Also, the MBC in data set [4] (setting [10]) was 7.81 µg/mL (≈ 20.4 µM); in data set [5], under 0.48 µg/mL; in data set [6] (setting [12]), 7.81 µg/mL (≈ 20.4 µM).
In the case of `NC[C@H]1O[C@H](O[C@H]2[C@H](O)[C@@H](O[C@H]3O[C@H](CO)[C@@H](O)[C@H](N)[C@H]3O)[C@H](N)C[C@@H]2N)[C@H](N)C[C@@H]1O` [Tobramucin, tobramycin], the MIC was over 16 µg/mL in the data set on B. cenacepacia (FQC2524) (setting [14]); over 16 µg/mL in [3] (Burkholderia cenocepacia, Tobramucin, CLSI criteria, B. cenocepacia (CBC 023), read-out: MIC (R/I/S category)); over 16 µg/mL in data set [4] (Burkholderia multivorans, Tobramucin, CLSI criteria, B. multivorans (CBC 022), read-out: MIC (R/I/S category)); over 16 µg/mL in data set [5] (setting [14]); over 16 µg/mL in data set [6] (Achromobacter, Tobramucin, CLSI criteria, A. xylosaxidans (HNA001), read-out: MIC (R/I/S category)).

These data come from patent US10857110B2, “Antibacterial compounds” (CONSEJO NACIONAL DE INVESTIGACIONES CIENTÍFICAS Y TÉCNICAS …, priority 2016, dated 2020).
